Assay results published in ChEMBL document CHEMBL3352595, “Anti-inflammatory secoiridoid glycosides from Gentianella azurea” (Bioorg Med Chem Lett, 2014).

Test system: RAW264.7
Assay: Anti-inflammatory activity in mouse RAW264.7 cells assessed as inhibition of LPS-induced nitric oxide production
Assay type: functional, cell-based

Row | Structure (SMILES) | IC50
1 | C=C[C@H]1[C@H](O[C@@H]2O[C@H](COC(=O)c3cccc(O)c3O[C@@H]3O[C@H](CO)[C@@H](O)[C@H](O)[C@H]3O)[C@@H](O)[C@H](O)[C@H]2O)OC=C2C(=O)OCC[C@H]21 | > 200 µM
2 | C=C[C@H]1[C@H](O[C@@H]2O[C@H](COC(=O)c3cccc(O)c3O[C@@H]3O[C@H](CO)[C@@H](O)[C@H](O)[C@H]3O)[C@@H](O)[C@H](O)[C@H]2OC(=O)c2cccc(O)c2O)OC=C2C(=O)OCC[C@H]21 | > 200 µM
3 | C=C[C@H]1[C@H](O[C@@H]2O[C@H](COC(C)=O)[C@@H](OC(C)=O)[C@H](O)[C@H]2OC(=O)c2cccc(O)c2O)OC=C2C(=O)OCC[C@H]21 | 0.69 µM
4 | C=C[C@H]1[C@H](O[C@@H]2O[C@H](COC(=O)c3cccc(O)c3O[C@@H]3O[C@H](CO)[C@@H](O)[C@H](O)[C@H]3O)[C@@H](O)[C@H](OC(C)=O)[C@H]2OC(=O)c2cccc(O)c2O)OC=C2C(=O)OCC[C@H]21 | > 200 µM
5 | C=C[C@H]1[C@H](O[C@@H]2O[C@H](COC(C)=O)[C@@H](OC(=O)c3cccc(O)c3O[C@@H]3O[C@H](CO)[C@@H](O)[C@H](O)[C@H]3O)[C@H](OC(C)=O)[C@H]2OC(=O)c2cccc(O)c2O)OC=C2C(=O)OCC[C@H]21 | 5.18 µM
6 | C=C[C@H]1[C@H](O[C@@H]2O[C@H](CO)[C@@H](O)[C@H](O)[C@H]2OC(=O)/C=C/c2ccc(O)cc2)OC=C2C(=O)OCC[C@]21O | > 200 µM
7 | C=C[C@H]1[C@H](O[C@@H]2O[C@H](CO)[C@@H](OC(=O)c3cccc(O)c3O[C@@H]3O[C@H](CO)[C@@H](O)[C@H](O)[C@H]3O)[C@H](O)[C@H]2O)OC=C2C(=O)OCC[C@H]21 | > 200 µM

Now from value to compound:

Row | IC50 | Structure (SMILES)
8 | 52.8 µM | C=C[C@H]1[C@H](O[C@@H]2O[C@H](COC(C)=O)[C@@H](OC(C)=O)[C@H](O)[C@H]2OC(C)=O)OC=C2C(=O)OCC[C@H]21
9 | > 200 µM | C=C[C@H]1[C@H](O[C@@H]2O[C@H](COC(C)=O)[C@@H](OC(C)=O)[C@H](OC(C)=O)[C@H]2O)OC=C2C(=O)OCC[C@H]21
10 | > 200 µM | C=C[C@H]1[C@H](O[C@@H]2O[C@H](COC(C)=O)[C@@H](O)[C@H](OC(C)=O)[C@H]2OC(C)=O)OC=C2C(=O)OCC[C@H]21
11 | > 200 µM | C=C[C@H]1[C@H](O[C@@H]2O[C@H](COC(C)=O)[C@@H](O)[C@H](OC(C)=O)[C@H]2OC(=O)c2cccc(O)c2O)OC=C2C(=O)OCC[C@H]21
